Target: T1, ME (malic enzyme) (Escherichia coli, UniProt P26616, L301R/Q392C, form not given)
T1 construct: gene maeA; C-terminal His6 tag kept; expressed in E. coli BW14329 from pTrc99K; crude lysate
Experiment: formazan (MTT/phenazine ethosulfate) absorbance at […] nm, crude lysate
Assay type: biochemical
Settings: 0.05 mM NCD; 5.0 mM L-malate; 50 mM HEPES pH 7.5; 10 mM MgCl2; room temperature

T1 sequence (P26616 whole entry L301R/Q392C, form open): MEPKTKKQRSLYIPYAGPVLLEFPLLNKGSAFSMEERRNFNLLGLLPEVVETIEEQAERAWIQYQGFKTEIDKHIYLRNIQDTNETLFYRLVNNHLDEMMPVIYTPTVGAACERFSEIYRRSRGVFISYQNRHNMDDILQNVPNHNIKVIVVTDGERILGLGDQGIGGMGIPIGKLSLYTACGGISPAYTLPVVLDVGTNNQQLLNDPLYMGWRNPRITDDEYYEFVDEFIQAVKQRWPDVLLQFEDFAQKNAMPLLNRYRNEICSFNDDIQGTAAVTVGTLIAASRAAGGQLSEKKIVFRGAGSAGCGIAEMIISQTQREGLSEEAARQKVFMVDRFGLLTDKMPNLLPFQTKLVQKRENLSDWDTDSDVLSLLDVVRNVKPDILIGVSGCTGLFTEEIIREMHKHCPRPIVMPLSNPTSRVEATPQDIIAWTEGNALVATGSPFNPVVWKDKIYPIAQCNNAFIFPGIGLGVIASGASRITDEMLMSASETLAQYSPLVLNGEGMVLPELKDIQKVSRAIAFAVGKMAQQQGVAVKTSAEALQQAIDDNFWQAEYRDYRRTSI

NC(=O)c1ccc[n+]([C@@H]2O[C@H](COP(=O)(O)OP(=O)(O)OC[C@H]3O[C@@H](n4ccc(N)nc4=O)[C@H](O)[C@@H]3O)[C@@H](O)[C@H]2O)c1 [NCD]
formazan (MTT/phenazine ethosulfate) absorbance at 570 nm, crude lysate: ME* or ME-NCD, activity of ME* or ME toward NCD
